From patent publication US11147272B2, “Pyridone compounds and agricultural and horticultural fungicides comprising the same as active ingredients” (MITSUI CHEMICALS AGRO, INC., priority 2017, dated 2021)

Key:
Magnaporthe grisea = experiment: whole plant or invertebrate; assay type: in vivo; details: 250 ppm drug solution sprayed on test plant
Alternaia brassicicola = experiment: Test Example C: Alternaria sooty spot on cabbage; assay type: in vivo; details: 250 ppm drug solution sprayed on test plant
Text: Seeds of a test plant (cabbage variety: Shikidori) were planted and cultivated until the cotyledons extended.
<Control Value> Control value=100{1−(n/3)}

Puccinia recondita = experiment: Test Example E: Brown rust on wheat; assay type: in vivo; details: 250 ppm drug solution sprayed on test plant
Phytophthora infestans = experiment: whole plant or invertebrate; assay type: in vivo; details: 250 ppm drug solution sprayed on test plant
Botrytis cinerea = experiment: Test Example B: Gray mold on tomato; details: 250 ppm drug solution sprayed on test plant
Plasmopara viticola = experiment: Test Example G: Downy mildew on vine; details: 250 ppm drug solution sprayed (2.5 ml/pot), grape Neomuscat, 7 to 10 days after inoculation
[1] = system: Colletotrichum orbiculare; experiment: Test Example H: Anthracnose on cucumber; details: 250 ppm drug solution sprayed (2.5 ml/pot), cucumber Sagami Hanjiro, 6 to 10 days after inoculation
[2] = system: Blumeria graminis f. sp. hordei; experiment: Test Example D: Powdery mildew on barley; details: 250 ppm drug solution sprayed on test plant

Row | Structure (SMILES) | Test A control value (Magnaporthe grisea) | Test C control value (Alternaia brassicicola) | Test E control value (Puccinia recondita) | Test F control value (Phytophthora infestans) | Test B control value (Botrytis cinerea) | Test G control value (Plasmopara viticola) | Test H control value [1] | Test D control value [2]
1 | CCCc1cc(Cl)c(=O)n(C)c1-c1ccc(OC)cc1Br [compound 417] | L (50% or less control value) | H (more than 50% control value) | H (more than 50% control value) | L (50% or less control value) | H (more than 50% control value) | L (50% or less control value) | H (more than 50% control value) | L (50% or less control value)
2 | CCCc1cc(Br)c(=O)n(C)c1-c1ccc(OC)cc1Br [compound 418] | L (50% or less control value) | H (more than 50% control value) | H (more than 50% control value) | H (more than 50% control value) | H (more than 50% control value) | L (50% or less control value) | H (more than 50% control value) | L (50% or less control value)
3 | CCCc1ccc(=O)n(C)c1-c1ccc(F)cc1C [compound 419] | L (50% or less control value) | H (more than 50% control value) | L (50% or less control value) | L (50% or less control value) | L (50% or less control value) | L (50% or less control value) | H (more than 50% control value) | L (50% or less control value)
4 | CCCc1cc(Cl)c(=O)n(C)c1-c1ccc(F)cc1C [compound 420] | L (50% or less control value) | L (50% or less control value) | H (more than 50% control value) | L (50% or less control value) | H (more than 50% control value) | L (50% or less control value) | L (50% or less control value) | H (more than 50% control value)
5 | CCCc1cc(Br)c(=O)n(C)c1-c1ccc(F)cc1C [compound 421] | L (50% or less control value) | H (more than 50% control value) | H (more than 50% control value) | L (50% or less control value) | H (more than 50% control value) | L (50% or less control value) | H (more than 50% control value) | H (more than 50% control value)
6 | CCCC1=C(c2c(F)cccc2F)N(CC)C(=O)CC1 [compound 422] | L (50% or less control value) | H (more than 50% control value) | L (50% or less control value) | L (50% or less control value) | L (50% or less control value) | L (50% or less control value) | L (50% or less control value) | H (more than 50% control value)
7 | CC(C)C(C)(O)c1cc(Br)c(=O)n(C)c1-c1c(F)cc(F)cc1F (stereo not drawn) [compound 423] | H (more than 50% control value) | H (more than 50% control value) | H (more than 50% control value) | H (more than 50% control value) | H (more than 50% control value) | H (more than 50% control value) | H (more than 50% control value) | H (more than 50% control value)
8 | CCCC1=C(c2c(F)cc(F)cc2F)N(CC)C(=S)CC1 [compound 424] | L (50% or less control value) | L (50% or less control value) | L (50% or less control value) | L (50% or less control value) | H (more than 50% control value) | L (50% or less control value) | L (50% or less control value) | L (50% or less control value)
9 | CCCc1ccc(=O)n(CC)c1-c1c(F)cccc1F [compound 426] | H (more than 50% control value) | H (more than 50% control value) | L (50% or less control value) | L (50% or less control value) | H (more than 50% control value) | L (50% or less control value) | H (more than 50% control value) | L (50% or less control value)
10 | CCCc1ccc(=S)n(CC)c1-c1c(F)cc(F)cc1F [compound 427] | L (50% or less control value) | H (more than 50% control value) | L (50% or less control value) | L (50% or less control value) | H (more than 50% control value) | L (50% or less control value) | H (more than 50% control value) | L (50% or less control value)
11 | CCCc1cc(Cl)c(=O)n(CC)c1-c1c(F)cccc1F [compound 428] | H (more than 50% control value) | H (more than 50% control value) | H (more than 50% control value) | L (50% or less control value) | H (more than 50% control value) | H (more than 50% control value) | H (more than 50% control value) | H (more than 50% control value)
12 | CCCc1cc(Br)c(=O)n(CC)c1-c1c(F)cccc1F [compound 429] | H (more than 50% control value) | H (more than 50% control value) | H (more than 50% control value) | L (50% or less control value) | H (more than 50% control value) | H (more than 50% control value) | H (more than 50% control value) | H (more than 50% control value)
13 | CCCc1cc(Cl)c(=S)n(CC)c1-c1c(F)cc(F)cc1F [compound 430] | H (more than 50% control value) | H (more than 50% control value) | H (more than 50% control value) | L (50% or less control value) | H (more than 50% control value) | L (50% or less control value) | H (more than 50% control value) | H (more than 50% control value)
14 | CCCc1cc(Br)c(=O)n(C)c1-c1ccc(OC)cc1C [compound 431] | H (more than 50% control value) | H (more than 50% control value) | H (more than 50% control value) | L (50% or less control value) | H (more than 50% control value) | H (more than 50% control value) | H (more than 50% control value) | H (more than 50% control value)
15 | COC(C)(c1cc(Br)c(=O)n(C)c1-c1c(F)cc(F)cc1F)C(C)C (stereo not drawn) [compound 432] | H (more than 50% control value) | H (more than 50% control value) | H (more than 50% control value) | L (50% or less control value) | H (more than 50% control value) | L (50% or less control value) | H (more than 50% control value) | H (more than 50% control value)
